Test results reported in patent publication US10660877B2 (BRISTOL-MYERS SQUIBB COMPANY, priority 2016, dated 2020).
Read-outs that look alike come from different tables or passages of the source.

Assays:
human TLR7 = human TLR7 (Homo sapiens (Human), UniProt Q9NYK1); assay: TLR7 inhibition reporter assay (HEK-Blue cells, SEAP reporter, gardiquimod stimulation); format: cell-based
human TLR8 = human TLR8 (Homo sapiens (Human), UniProt Q9NR97); assay: TLR8 inhibition reporter assay (HEK-Blue cells, SEAP reporter, R848 stimulation);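 note: compounds tested from 0.05 nM to 50 µM, 22 h at 37 °C, SEAP measured with HEK-Blue Detection, inhibition relative to agonist plus DMSO versus a known inhibitor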
human TLR9 = human TLR9 (Homo sapiens (Human), UniProt Q9NR96); assay: TLR9 inhibition reporter assay (HEK-Blue cells, SEAP reporter, ODN2006 stimulation);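 note: compounds tested over 0.05 nM to 50 µM, 22 h incubation, inhibition taken as SEAP signal drop from agonist plus DMSO wells toward a known inhibitor control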
[1] = HEK-Blue cells overexpressing human TLR7, gardiquimod 7.5 μM
[2] = read-out: TLR8 IC50, HEK-Blue cells overexpressing human TLR8, R848 15.9 μM
[3] = read-out: TLR9 IC50, HEK-Blue cells overexpressing human TLR9, ODN2006 5 nM
[4] = TLR8 IC50, HEK-Blue cells overexpressing human TLR8, R848 15.9 μM
[5] = TLR9 IC50, HEK-Blue cells overexpressing human TLR9, ODN2006 5 nM
[6] = HEK-Blue cells, gardiquimod 7.5 μM
[7] = read-out: TLR8 IC50, HEK-Blue cells, R848 15.9 μM
[8] = read-out: TLR9 IC50, HEK-Blue cells, ODN2006 5 nM

Sequence of human TLR7 (Q9NYK1 27-1049): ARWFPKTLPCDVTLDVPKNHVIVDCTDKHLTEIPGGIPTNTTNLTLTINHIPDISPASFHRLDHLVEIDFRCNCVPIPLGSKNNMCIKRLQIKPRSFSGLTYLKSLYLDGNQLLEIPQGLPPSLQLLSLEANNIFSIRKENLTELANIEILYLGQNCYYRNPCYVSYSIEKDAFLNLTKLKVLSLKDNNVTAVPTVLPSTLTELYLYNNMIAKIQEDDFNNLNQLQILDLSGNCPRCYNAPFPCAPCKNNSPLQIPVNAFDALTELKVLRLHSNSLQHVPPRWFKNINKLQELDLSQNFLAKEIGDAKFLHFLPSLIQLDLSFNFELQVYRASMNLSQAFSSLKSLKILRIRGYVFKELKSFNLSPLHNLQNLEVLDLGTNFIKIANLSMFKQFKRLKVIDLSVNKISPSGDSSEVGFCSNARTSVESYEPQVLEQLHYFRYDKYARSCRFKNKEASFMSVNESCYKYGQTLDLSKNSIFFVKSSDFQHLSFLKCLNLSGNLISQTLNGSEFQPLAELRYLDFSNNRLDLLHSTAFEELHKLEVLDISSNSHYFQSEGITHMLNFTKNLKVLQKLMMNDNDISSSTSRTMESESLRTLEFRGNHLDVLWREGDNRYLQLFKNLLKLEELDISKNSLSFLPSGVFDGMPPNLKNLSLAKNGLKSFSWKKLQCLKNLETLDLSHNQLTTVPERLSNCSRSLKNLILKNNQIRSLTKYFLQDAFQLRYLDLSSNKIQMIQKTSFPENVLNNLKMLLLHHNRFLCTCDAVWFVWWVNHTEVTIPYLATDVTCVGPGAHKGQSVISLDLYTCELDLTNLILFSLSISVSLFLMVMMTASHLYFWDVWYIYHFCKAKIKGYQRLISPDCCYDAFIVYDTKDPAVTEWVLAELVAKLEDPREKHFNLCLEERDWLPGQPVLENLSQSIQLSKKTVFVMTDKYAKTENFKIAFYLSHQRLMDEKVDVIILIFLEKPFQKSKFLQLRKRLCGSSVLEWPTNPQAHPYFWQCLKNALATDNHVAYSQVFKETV
Sequence of human TLR9 (Q9NR96 26-1032): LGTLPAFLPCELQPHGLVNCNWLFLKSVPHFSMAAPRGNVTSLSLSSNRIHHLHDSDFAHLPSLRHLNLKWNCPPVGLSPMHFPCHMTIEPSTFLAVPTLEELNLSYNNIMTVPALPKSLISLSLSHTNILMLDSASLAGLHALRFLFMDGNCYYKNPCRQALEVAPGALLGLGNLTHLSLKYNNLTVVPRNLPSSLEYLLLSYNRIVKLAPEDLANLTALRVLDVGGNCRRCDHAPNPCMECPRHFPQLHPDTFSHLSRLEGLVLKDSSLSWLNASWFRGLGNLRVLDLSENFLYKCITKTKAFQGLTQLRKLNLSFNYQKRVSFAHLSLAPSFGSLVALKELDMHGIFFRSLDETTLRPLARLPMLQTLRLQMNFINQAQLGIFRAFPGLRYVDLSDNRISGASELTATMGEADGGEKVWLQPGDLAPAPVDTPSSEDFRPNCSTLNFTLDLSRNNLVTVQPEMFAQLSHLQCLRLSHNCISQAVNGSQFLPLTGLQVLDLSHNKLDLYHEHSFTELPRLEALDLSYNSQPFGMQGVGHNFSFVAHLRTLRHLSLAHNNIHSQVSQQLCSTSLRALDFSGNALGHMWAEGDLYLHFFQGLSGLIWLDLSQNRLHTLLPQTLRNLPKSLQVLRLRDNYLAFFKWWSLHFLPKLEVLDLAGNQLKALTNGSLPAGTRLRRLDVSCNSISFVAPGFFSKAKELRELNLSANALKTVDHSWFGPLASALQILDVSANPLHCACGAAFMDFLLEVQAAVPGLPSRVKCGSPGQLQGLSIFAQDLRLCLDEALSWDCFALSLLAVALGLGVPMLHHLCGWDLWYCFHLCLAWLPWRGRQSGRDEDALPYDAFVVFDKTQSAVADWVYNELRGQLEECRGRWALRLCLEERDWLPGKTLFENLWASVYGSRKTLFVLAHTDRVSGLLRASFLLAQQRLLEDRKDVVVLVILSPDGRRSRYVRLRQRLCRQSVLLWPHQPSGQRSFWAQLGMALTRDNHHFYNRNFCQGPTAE
Sequence of human TLR8 (Q9NR97 27-1041): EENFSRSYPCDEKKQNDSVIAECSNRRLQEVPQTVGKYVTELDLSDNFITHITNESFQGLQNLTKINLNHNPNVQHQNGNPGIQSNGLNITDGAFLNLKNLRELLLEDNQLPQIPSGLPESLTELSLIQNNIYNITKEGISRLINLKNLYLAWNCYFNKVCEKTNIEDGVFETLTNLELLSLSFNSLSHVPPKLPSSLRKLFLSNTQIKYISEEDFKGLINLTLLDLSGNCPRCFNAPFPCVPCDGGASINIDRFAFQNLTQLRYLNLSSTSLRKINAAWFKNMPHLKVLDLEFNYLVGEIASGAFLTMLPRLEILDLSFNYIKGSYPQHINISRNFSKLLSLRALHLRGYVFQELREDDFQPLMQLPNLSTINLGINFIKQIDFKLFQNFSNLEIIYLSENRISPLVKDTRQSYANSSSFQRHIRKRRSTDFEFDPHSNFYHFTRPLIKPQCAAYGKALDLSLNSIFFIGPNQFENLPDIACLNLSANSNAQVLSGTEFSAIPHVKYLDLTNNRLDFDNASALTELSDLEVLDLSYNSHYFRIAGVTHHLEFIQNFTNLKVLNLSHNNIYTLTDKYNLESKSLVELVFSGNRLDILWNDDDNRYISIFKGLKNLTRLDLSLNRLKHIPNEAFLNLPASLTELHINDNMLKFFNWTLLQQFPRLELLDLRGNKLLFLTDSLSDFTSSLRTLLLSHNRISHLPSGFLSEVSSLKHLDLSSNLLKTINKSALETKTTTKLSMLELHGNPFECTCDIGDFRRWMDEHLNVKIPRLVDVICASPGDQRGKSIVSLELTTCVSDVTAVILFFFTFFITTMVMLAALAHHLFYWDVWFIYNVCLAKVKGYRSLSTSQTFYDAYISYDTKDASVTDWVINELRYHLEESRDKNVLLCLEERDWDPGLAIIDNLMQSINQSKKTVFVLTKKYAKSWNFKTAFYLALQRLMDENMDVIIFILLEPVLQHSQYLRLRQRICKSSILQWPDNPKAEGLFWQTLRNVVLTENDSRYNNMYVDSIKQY

Row | SMILES | IC50 (human TLR7; [1]) [nM] | IC50 (human TLR8; [2]) [nM] | IC50 (human TLR9; [3]) [nM] | IC50 (human TLR8; [4]) [nM] | IC50 (human TLR9; [5]) [nM] | IC50 (human TLR7; [6]) [nM] | IC50 (human TLR8; [7]) [nM] | IC50 (human TLR9; [8]) [nM]
1 | Cc1cc(-c2[nH]c3ccc(C4CCN(CC(=O)N5CCOC[C@H]5CO)CC4)cc3c2C(C)C)cc(C)n1 [Example 304, (R)-2-(4-(2-(2,6-dimethylpyridin-4-yl)-3-isopropyl-1H-indol-5-yl)piperidin-1-yl)-1-(3-(hydroxymethyl)morpholino)ethan-1-one] | 10.3 | 42.6 | 441 | – | – | – | – | –
2 | Cc1cc(-c2[nH]c3ccc(C4CCN(C(=O)CO)CC4)cc3c2C(C)C)cc(C)n1 [Example 116, 1-(4-(2-(2,6-dimethylpyridin-4-yl)-3-isopropyl-1H-indol-5-yl)piperidin-1-yl)-2-hydroxyethan-1-one] | 3.4 | – | – | 127 | 32200 | – | – | –
3 | Cc1cc(-c2[nH]c3ccc(C4CCN(Cc5c[nH]c(C)n5)CC4)cc3c2CC(F)F)cc(C)n1 [Example 538, 3-(2,2-difluoroethyl)-2-(2,6-dimethylpyridin-4-yl)-5-(1-((2-methyl-1H-imidazol-4-yl)methyl)piperidin-4-yl)-1H-indole] | 39.6 | 34.6 | 69 | – | – | – | – | –
4 | CCN(CCO)C(=O)CN1CCC(c2ccc3[nH]c(-c4cc(C)nc(C)c4)c(C(C)C)c3c2)CC1 [Example 294, 2-(4-(2-(2,6-dimethylpyridin-4-yl)-3-isopropyl-1H-indol-5-yl)piperidin-1-yl)-N-ethyl-N-(2-hydroxyethyl)acetamide] | 14.1 | 58.3 | 1880 | – | – | – | – | –
5 | Cc1c(-c2[nH]c3ccc(C4CCNCC4)cc3c2C(C)C)ccnc1N [Example 11, 4-(3-isopropyl-5-(piperidin-4-yl)-1H-indol-2-yl)-3-methylpyridin-2-amine] | 358 | – | – | 90.6 | 309 | – | – | –
6 | Cc1cc(-c2[nH]c3ccc(C4CCNCC4O)cc3c2C(C)C)cc(C)n1 (single isomer, unassigned) [Example 488A, 4-(2-(2,6-dimethylpyridin-4-yl)-3-isopropyl-1H-indol-5-yl)piperidin-3-ol] | 2.7 | – | – | 21 | 240 | – | – | –
7 | Cc1cc(-c2[nH]c3ccc(C4CCN(CC(=O)NC56C[C@@H]7C[C@@H](CC(O)(C7)C5)C6)CC4)cc3c2C(C)C)cc(C)n1 [Example 225, 2-(4-(2-(2,6-dimethylpyridin-4-yl)-3-isopropyl-1H-indol-5-yl)piperidin-1-yl)-N-((1r,3 s,5R,7S)-3-hydroxyadamantan-1-yl)acetamide] | 11.6 | 26.8 | 651 | – | – | – | – | –
8 | Cc1cc(-c2[nH]c3ccc(C4CCN(CC(=O)NC5CCOC5)CC4)cc3c2C(C)C)cc(C)n1 (stereo not drawn) [Example 282, 2-(4-(2-(2,6-dimethylpyridin-4-yl)-3-isopropyl-1H-indol-5-yl)piperidin-1-yl)-N-(tetrahydrofuran-3-yl)acetamide] | 3.7 | 9 | 2700 | – | – | – | – | –
9 | Cc1cc(-c2[nH]c3ccc(C4CCN(C(=O)C5CCOC5)CC4)cc3c2C(C)C)cc(C)n1 (stereo not drawn) [Example 199, (4-(2-(2,6-dimethylpyridin-4-yl)-3-isopropyl-1H-indol-5-yl)piperidin-1-yl)(tetrahydrofuran-3-yl)methanone] | 3.6 | 86.1 | 46600 | – | – | – | – | –
10 | Cc1cc(-c2[nH]c3ccc(C4CCN(CC5CN(Cc6ccccc6)CCO5)CC4)cc3c2C(C)C)cc(C)n1 (stereo not drawn) [Example 320, 4-benzyl-2-((4-(2-(2,6-dimethylpyridin-4-yl)-3-isopropyl-1H-indol-5-yl)piperidin-1-yl)methyl)morpholine] | 18.2 | 21.8 | 192 | – | – | – | – | –
11 | CCN(CCO)CC(=O)N1CCC(c2ccc3[nH]c(-c4cc(C)nc(C)c4)c(C(C)C)c3c2)CC1 [Example 397, 1-(4-(2-(2,6-dimethylpyridin-4-yl)-3-isopropyl-1H-indol-5-yl)piperidin-1-yl)-2-(ethyl(2-hydroxyethyl)amino)ethan-1-one] | 2.2 | 18.6 | 705 | – | – | – | – | –
12 | Cc1cc(-c2[nH]c3ccc(C4CCN(C(=O)CNCC5CCCO5)CC4)cc3c2C(C)C)cc(C)n1 (stereo not drawn) [Example 373, 1-(4-(2-(2,6-dimethylpyridin-4-yl)-3-isopropyl-1H-indol-5-yl)piperidin-1-yl)-2-(((tetrahydrofuran-2-yl)methyl)amino)ethan-1-one] | 2.5 | 17.5 | 429 | – | – | – | – | –
13 | CC(=O)N1CCC(c2ccc3[nH]c(-c4cc(C)nc(C)c4)c(C(C)C)c3c2)CC1 [Example 174, 1-(4-(2-(2,6-dimethylpyridin-4-yl)-3-isopropyl-1H-indol-5-yl)piperidin-1-yl)ethan-1-one] | 5.5 | 81.1 | 35100 | – | – | – | – | –
14 | Cc1cc(-c2[nH]c3ccc(C4CCN(C(=O)CNC[C@@H](O)CO)CC4)cc3c2C(C)C)ccn1 [Example 511, (R)-2-((2,3-dihydroxypropyl)amino)-1-(4-(3-isopropyl-2-(2-methylpyridin-4-yl)-1H-indol-5-yl)piperidin-1-yl)ethan-1-one] | 32.6 | 31.3 | 1460 | – | – | – | – | –

Results, then the compound that gave them:

Row | IC50 (human TLR7; [1]) [nM] | IC50 (human TLR8; [2]) [nM] | IC50 (human TLR9; [3]) [nM] | IC50 (human TLR8; [4]) [nM] | IC50 (human TLR9; [5]) [nM] | IC50 (human TLR7; [6]) [nM] | IC50 (human TLR8; [7]) [nM] | IC50 (human TLR9; [8]) [nM] | SMILES
15 | 102 | 266 | > 50000 | – | – | – | – | – | CCCS(=O)(=O)N1CCC(c2ccc3[nH]c(-c4ccnc(C)c4)c(C(C)C)c3c2)CC1 [Example 545, 3-isopropyl-2-(2-methylpyridin-4-yl)-5-(1-(propylsulfonyl)piperidin-4-yl)-1H-indole]
16 | – | – | – | – | – | 15.4 | 33.6 | 445 | Cc1cc(-c2[nH]c3ccc(C4CCN(CC5CCN(C(C)C)CC5)CC4)c(F)c3c2C(C)C)ccn1 [Example 874, 4-fluoro-3-isopropyl-5-(1-((1-isopropylpiperidin-4-yl)methyl)piperidin-4-yl)-2-(2-methylpyridin-4-yl)-1H-indole]
17 | 104 | 78.9 | > 50000 | – | – | – | – | – | Cc1cc(-c2[nH]c3ccc(C4CCN(CC(F)F)CC4)cc3c2C(C)C)ccn1 [Example 660, 5-(1-(2,2-difluoroethyl)piperidin-4-yl)-3-isopropyl-2-(2-methylpyridin-4-yl)-1H-indole]
18 | 7 | 2.6 | 2570 | – | – | – | – | – | Cc1cc(-c2[nH]c3ccc(C4CCN(Cc5c[nH]nn5)CC4)cc3c2C(C)C)c(F)cn1 [Example 691]
19 | 6670 | 93.2 | 1300 | – | – | – | – | – | CNCCN1CCC(c2ccc3[nH]c(-c4cc(Cl)ncc4OC)c(C)c3c2)CC1 [Example 757, 2-(4-(2-(2-chloro-5-methoxypyridin-4-yl)-3-methyl-1H-indol-5-yl)piperidin-1-yl)-N-methylethan-1-amine]
20 | – | – | – | – | – | 36.7 | 28.3 | 1030 | Cc1cc(-c2[nH]c3ccc(C4CCN(C(CF)CF)CC4)cc3c2C(C)C)ccn1 [Example 865, 5-(1-(1,3-difluoropropan-2-yl)piperidin-4-yl)-3-isopropyl-2-(2-methylpyridin-4-yl)-1H-indole]
21 | 33.1 | 5.2 | 1680 | – | – | – | – | – | COc1cc(OC)nc(CN2CCC(c3ccc4[nH]c(-c5cc(C)ncc5C)c(C(C)C)c4c3)CC2)n1 [Example 693, 5-(1-((4,6-dimethoxypyrimidin-2-yl)methyl)piperidin-4-yl)-2-(2,5-dimethylpyridin-4-yl)-3-isopropyl-1H-indole]
22 | 36.8 | 16.4 | 1190 | – | – | – | – | – | Cc1cc(-c2[nH]c3ccc(C4CCN(C5CC(C)OC(C)C5)CC4)cc3c2C(C)C)ccn1 (stereo not drawn) [Example 712, 5-(1-(2,6-dimethyltetrahydro-2H-pyran-4-yl)piperidin-4-yl)-3-isopropyl-2-(2-methylpyridin-4-yl)-1H-indole]
23 | 0.5 | 1.3 | 845 | – | – | – | – | – | Cc1cc(-c2[nH]c3ccc(C4CCN(C(=O)CN(C)C)CC4)cc3c2C(C)C)c(F)c(C)n1 [Example 588, 2-(dimethylamino)-1-(4-(2-(3-fluoro-2,6-dimethylpyridin-4-yl)-3-isopropyl-1H-indol-5-yl)piperidin-1-yl)ethan-1-one]
24 | – | – | – | – | – | 44.1 | 539 | > 50000 | Cc1cc(-c2[nH]c3ccc(C4CCN(C(=O)C(=O)O)CC4)cc3c2C(C)C)cc(C)n1 [Example 859, 2-(4-(2-(2,6-dimethylpyridin-4-yl)-3-isopropyl-1H-indol-5-yl)piperidin-1-yl)-2-oxoacetic acid]
25 | – | – | – | – | – | 17.5 | 63.4 | 3070 | CC(=O)N1CCC(c2cc3c(C(C)C)c(-c4cc(C)nc(C)c4)[nH]c3cc2F)CC1 [Example 829, 1-(4-(2-(2,6-dimethylpyridin-4-yl)-6-fluoro-3-isopropyl-1H-indol-5-yl)piperidin-1-yl)ethan-1-one]
26 | 20.7 | 3.8 | 2990 | – | – | – | – | – | Cc1cc(-c2[nH]c3ccc(C4CCN(C5CCOCC5)CC4)cc3c2C(C)C)c(F)cn1 [Example 715, 2-(5-fluoro-2-methylpyridin-4-yl)-3-isopropyl-5-(1-(tetrahydro-2H-pyran-4-yl)piperidin-4-yl)-1H-indole]
27 | – | – | – | – | – | 4.8 | 17.3 | 229 | Cc1cc(-c2[nH]c3cc(F)c(C4CCN(C5CC(C)OC(C)C5)CC4)cc3c2C(C)C)cc(C)n1 (stereo not drawn) [Example 830, 2-(2,6-dimethylpyridin-4-yl)-5-(1-(2,6-dimethyltetrahydro-2H-pyran-4-yl)piperidin-4-yl)-6-fluoro-3-isopropyl-1H-indole]
28 | – | – | – | – | – | 53.5 | 33.8 | 925 | Cc1cc(-c2[nH]c3ccc(C4CCN(CC5CCCCC5)CC4)cc3c2C(C)C)ccn1 [Example 868, 5-(1-(cyclohexylmethyl)piperidin-4-yl)-3-isopropyl-2-(2-methylpyridin-4-yl)-1H-indole]
